In brackets after ≈: the same amount, converted by molar mass.
Columns and labels:
[1] = test system: SCC2095 (oral squamous cell carcinoma cell line); assay: Anti-proliferation MTT assay in SCC2095 cell line; format: cell-based, human
[2] = test system: SCC2095 cells; assay: Cellular uptake / intracellular accumulation in SCC2095 cells; format: in vitro ADME, human; settings: SCC2095 cells incubated with GS409, at different incubation time (2 or 4 hours)
[3] = test system: Caco-2 cell monolayer; assay: Transport study in Caco-2 cell culture model; format: in vitro ADME, human; settings: translated from Caco-2 permeability; ref Artursson & Karlsson, 1991
[4] = SCC2095 cell line, MTT, 48 hours incubation

SMILES	IC50 [1, 4] [µg/mL]	IC50 ([1]; Homo sapiens, 48 h) [µg/mL]	further results
O=c1[nH]cc(F)c(=O)[nH]1 [5-Fu (positive control), reference compound]	28.61 (≈ 220 µM)		
CC1(C)O[C@H]2CC(=O)OC[C@@]23C1=C(O)C(=O)[C@]1(C)[C@@H]3CC[C@@]2(C)[C@H](c3ccoc3)OC(=O)[C@H]3O[C@]321 [Evodol, evodol]	>100		
CC1=C2C(=O)O[C@@H](c3ccoc3)[C@]2(C)CCC1 [Fraxinellone, fraxinellone]		28.6 (≈ 123 µM)	intracellular accumulation among the 9 components [2]: relatively high; absorption in the human intestine following oral administration [3]: more than 70%
CC1(C)O[C@H]2CC(=O)OC[C@]23[C@H]2CC[C@@]4(C)[C@H](c5ccoc5)OC(=O)[C@H]5O[C@]54[C@]2(C)C(=O)C[C@@H]13 [Limonin, limonin]		> 100	
Oc1ccc2c(c1)OC[C@H]1c3cc4c(cc3O[C@@H]21)OCO4 [Maackiain, maackiain]		86.3 (≈ 304 µM)	intracellular accumulation among the 9 components [2]: relatively high
O=C1CCC[C@@H]2[C@H]3CCCN4CCC[C@@H](CN12)[C@@H]34 [Matrine, matrine]		> 100	
CC1(C)OC(=O)C=C[C@]2(C)[C@H]3CC[C@@]4(C)[C@H](c5ccoc5)OC(=O)[C@H]5O[C@]54[C@]3(C)C(=O)C[C@@H]12 [Obacunone, obacunone]		> 100	
CC1(C)O[C@H]2CC(=O)OC[C@]23[C@H]2CC[C@@]4(C)[C@H](c5ccoc5)OC(=O)[C@H]5O[C@]54[C@]2(C)[C@@H](O)C(=O)[C@@H]13 [Rutaevine, rutaevine]	>100		
OC[C@H]1O[C@@H](Oc2ccc3c(c2)OC[C@H]2c4cc5c(cc4O[C@@H]32)OCO5)[C@H](O)[C@@H](O)[C@@H]1O [Trifolirhizin, trifolirhizin]		> 100	

From article PMC4541799 (Journal of ethnopharmacology, 2015)
